# Several values for one entry are separate records, joined by “and”; a condition that tells them apart may be missing. Equal values may be shown once. Entries after “also recorded” stand apart in the source; their conditions may differ.
# Assays:
# lymphoid leukemia L1210 [1] = test: Intraperitoneal (IP) lymphoid leukemia L1210 transplanted mouse tumor test; assay type: in vivo, murine; details: for T - C (average weight change of test group minus control): day 5
# From the text: ^(a) Day 1-9 treatment schedule (9 injections)
# ^(b) Day 1,5,9 treatment schedule (3 injections)
# ^(c) Day 1 only treatment schedule (1 injection)
# ^(f) Percentage increase in life span of treated animals [(treated
# survival .div. control survival) × 100%] - 100%
# B16 melanocarcinoma = test: Intraperitoneal B16 melanocarcinoma transplanted mouse tumor test; assay type: in vivo, murine; details: for OD (optimum dose) / ILS (percentage increase in life span): Table IX; for OD (optimum dose): B16, QD1-9; for ILS (percentage increase in life span): B16, QD1-9, at OD; for antitumor activity: B16 melanoma
# ependymoblastoma = test: Intracerebral (IC) ependymoblastoma (EM) brain tumor test; assay type: in vivo, murine; details: for OD (optimum dose) / animals alive per 6 test animals on day of termination / ILS (percentage increase in life span): Table X, IC ependymoblastoma; for OD (optimum dose): QD1-5; for antitumor activity: IC ependymoblastoma (EM); for animals alive per 6 test animals on day of termination / ILS (percentage increase in life span): QD1-5, at OD; for animals alive per 6 test animals on day of termination / survivors (number in parentheses) EM: day 60; for survivors (number in parentheses) EM: per 6 test animals
# From the text: ^c Ic tumor implantation, ip QD1-5 treatment schedule.
# ^g Number of animals alive per six test animals on day of termination
# of experiment (day 99 for expt 133 and day 60 for expt 136 and 144).
# A third IC transplanted mouse tumor model, the ependymoblastoma system, was also studied. This system requires intracerebral implantation of a solid tumor fragment while the IC L1210 and IC P388 systems utilize IC inoculated ascites tumor fluid. All three use IP drug treatment however. […] Cures (survivors from the group of six mice on the last day of the experiment) are indicated. Experiments 136 and 144 were terminated on day 60. Since the number of cures was about the same, the differences in T/C values in these two experiments reflect differences in the life span of the two different sets of control animals. Experiment 133 was terminated on day 99 with a resulting higher activity value.
# The hydrophilic dihydroxypropylamino compound (No. 39), which was curative in the IP L1210 and P388 leukemia systems, was active but gave a large spread in ILS values (53-186%). […] Again, its hydrophilic character may present transport problems in this IC tumor system.
# [2] = tested on: P388 lymphocytic leukemia; test: Intraperitoneal (IP) lymphocytic leukemia P388 transplanted mouse tumor test; assay type: in vivo, murine; details: for OD (optimum dose): IP P388, QD1-9
# From the text: ^b Ip tumor implantation, ip QD1-9 treatment schedule.
# The L1210, P388 and B16 test systems described in Table II utilize intraperitoneal (IP) tumor implantation and IP drug treatment while the Lewis lung system employs subcutaneous tumor implantation and IP treatment.
# Aqueous saline solution (0.9%) was used as the drug vehicle. Normally, five doses were employed per experiment with the top dose chosen to produce toxicity. The lower doses were 50% of each preceeding dose.
# Consistent with NCI antitumor test protocols, intraperitoneal (IP) administration of the drug was employed with all five tumor systems investigated. Tumor implantation was IP in the systems designated IP leukemia L1210 and P388 as well as B16 melanoma.
# [3] = Room temperature water solubility; assay type: physicochemical; details: water; Table VII; room temperature, approximate; read-out: Approx. H2O Sol.
# Protocol: In the following examples, all melting points are uncorrected and were recorded on a Thomas-Hoover capillary melting point apparatus. Elemental analyses were performed by NIAMDD, NIH, Bethesda, Maryland. Fluoranil, ethyleneimine and 2l -methylethyleneimine were obtained commerically. […] New compounds were identified by nmr and ir spectroscopy. In the tetraamino derivatives, the methylene protons of the aziridine rings usually occurred as a singlet at δ2.0-2.2 in CDCl3 or DMSO-d6. This absorption appeared at δ2.40 (CDCl3) for compound 11. Carbonyl absorption frequencies (nujol mull) occurred in the range 1620-1640 cm^-1 for the tetraamino compounds. Satisfactory elemental analyses (+0.4% of calculated values) are indicated by elemental symbols in Table VII. Room temperature water solubilities were determined by the incremental addition (pipet) of water to a weighed amount of compound with shaking. The solubility values in Table VII must be considered as approximate.
# lymphoid leukemia L1210 [4] = test: Intracerebral (IC) lymphoid leukemia L1210 test; assay type: in vivo, murine; details: Table X
# From the text: ^b Ic tumor implantation, ip QD1-9 treatment schedule.
# The L1210, P388 and B16 test systems described in Table II utilize intraperitoneal (IP) tumor implantation and IP drug treatment while the Lewis lung system employs subcutaneous tumor implantation and IP treatment. All three CNS tumor models (Table III) use intracerebral (IC) tumor implantation and IP treatment.
# Consistent with NCI antitumor test protocols, intraperitoneal (IP) administration of the drug was employed with all five tumor systems investigated. Tumor implantation was IP in the systems designated IP leukemia L1210 and P388 as well as B16 melanoma. Intracerebral (IC) tumor implantation was utilized in the IC L1210 and ependymoblastoma tumor systems.
# [5] = L1210 system, Q4D and QD1-9 schedules
# [6] = Table VIII, IP L1210, Day 1 only (1 injection)
# [7] = Table VIII, IP L1210, Q4D(1,5,9) (3 injections)
# [8] = Table VIII, IP L1210, Q4D(1,5,9), at OD
# [9] = Table VIII, IP L1210, QD1-9 (9 injections)
# [10] = Table IX, IP P388, QD1-9, at OD
# [11] = IP L1210, tetraaminobenzoquinone series (Table VIII)
# [12] = Table VIII, IP L1210, Day 1 only, at OD
# [13] = Table VIII, IP L1210, QD1-9, at OD
Compound,antitumor activity (lymphoid leukemia L1210 [1]; [5]),OD (optimum dose) (B16 melanocarcinoma),ILS (percentage increase in life span) (B16 melanocarcinoma),OD (optimum dose) (ependymoblastoma),OD (optimum dose) (lymphoid leukemia L1210 [1]; [7]),ILS (percentage increase in life span) (lymphoid leukemia L1210 [1]; [8]),OD (optimum dose) (lymphoid leukemia L1210 [1]; [9]),"ILS (percentage increase in life span) [2, 10]",solubility [3],ILS (percentage increase in life span) (lymphoid leukemia L1210 [1]; [13]),OD (optimum dose) ([2]; Table IX),ILS (percentage increase in life span) (ependymoblastoma),also measured
CCOC(=O)NC1=C(N2CC2C)C(=O)C(NC(=O)OCC)=C(N2CC2C)C1=O (centres unmarked) [Compound 10],abolished activity,–,–,–,–,–,–,–,–,–,–,–,–
"O=C1C(N2CCCC2)=C(N2CC2)C(=O)C(N2CCCC2)=C1N1CC1 [Compound 43, 2,5-Diaziridinyl-3,6-dipyrrolidino-1,4-benzoquinone]",–,2.0 mg/kg/injection,28% and 18%,1.6 mg/kg/injection and 3.1 mg/kg/injection,6.2 mg/kg/injection,43%,2.0 mg/kg/injection,72% and 55%,500 µg/mL,–,–,–,OD (optimum dose) (lymphoid leukemia L1210 [1]; [6]): 4.0 mg/kg/injection and 2.0 mg/kg/injection; T - C (average weight change of test group minus control) (lymphoid leukemia L1210 [1]; [8]): -2.3 grams
CCCCNC1=C(N2CC2)C(=O)C(NCCCC)=C(N2CC2)C1=O [Compound 37],–,10.0 mg/kg/injection and 5.0 mg/kg/injection,–,6.0 mg/kg/injection and 3.0 mg/kg/injection,12.5 mg/kg/injection and 8.2 mg/kg/injection,44% and 25%,10.0 mg/kg/injection and 5.0 mg/kg/injection,64% and 49%,< 100 µg/mL,36% and 30%,5.0 mg/kg/injection and 10.0 mg/kg/injection,–,antitumor activity (ependymoblastoma): has activity; antitumor activity (lymphoid leukemia L1210 [1]; [11]): significant reduction in activity; OD (optimum dose) (lymphoid leukemia L1210 [1]; [6]): 10.0 mg/kg/injection; ILS (percentage increase in life span) (lymphoid leukemia L1210 [1]; [12]): 11% and 5%
CCSC1=C(N2CC2)C(=O)C(SCC)=C(N2CC2)C1=O [Compound 5],the activity was not reproducible,–,–,–,–,–,–,–,–,–,–,–,"activity (%ILS) (lymphoid leukemia L1210 [1]; IP L1210, Q4D schedule): 30%"
CNC1=C(N2CC2C)C(=O)C(NC)=C(N2CC2C)C1=O (centres unmarked) [Compound 26],–,5.0 mg/kg/injection,70% and 48%,10.0 mg/kg/injection and 5.0 mg/kg/injection,12.5 mg/kg/injection,93% and 52%,5.0 mg/kg/injection,–,< 100 µg/mL,69% and 37%,–,–,"antitumor activity (B16 melanocarcinoma): active; ILS (%) B16 (B16 melanocarcinoma; Table XI, outstanding activity): 70%; antitumor activity (ependymoblastoma): highly active; animals alive per 6 test animals on day of termination (ependymoblastoma): 1; ILS (%) EM (ependymoblastoma; Table XI, outstanding activity): 294%; survivors (number in parentheses) EM (ependymoblastoma; Table XI): 1; OD (optimum dose) (lymphoid leukemia L1210 [4]; IC L1210, QD1-9): 5.0 mg/kg/injection and 10.0 mg/kg/injection; ILS (percentage increase in life span) (lymphoid leukemia L1210 [4]; IC L1210, QD1-9, at OD): 39% and 25%; OD (optimum dose) (lymphoid leukemia L1210 [1]; [6]): 5.0 mg/kg/injection and 10.0 mg/kg/injection; ILS (percentage increase in life span) (lymphoid leukemia L1210 [1]; [12]): 42% and 39%"
O=C1C(N2CCCCC2)=C(N2CC2)C(=O)C(N2CCCCC2)=C1N1CC1 [Compound 44],–,5.0 mg/kg/injection and 2.5 mg/kg/injection,–,–,–,26% and 22%,10.0 mg/kg/injection,46% and 77%,< 100 µg/mL,28%,5.0 mg/kg/injection and 10.0 mg/kg/injection,68% and 46%,ILS (percentage increase in life span) (lymphoid leukemia L1210 [1]; [12]): 16% and 8%; T - C (average weight change of test group minus control) (lymphoid leukemia L1210 [1]; [13]): -2.2 grams
O=C1C(N2CC2)=C(N2CCCC(O)C2)C(=O)C(N2CC2)=C1N1CCCC(O)C1 (centres unmarked) [Compound 45],–,1.0 mg/kg/injection,40% and 37%,–,6.0 mg/kg/injection and 4.0 mg/kg/injection,104% and 84%,3.0 mg/kg/injection,95% and 78%,1000 µg/mL,59% and 44%,1.0 mg/kg/injection,64% and 48%,"antitumor activity (B16 melanocarcinoma): approached minimal reproducible activity; animals alive per 6 test animals on day of termination (lymphoid leukemia L1210 [1]; Table VIII, IP L1210, Q4D(1,5,9), at OD, day 30): 2"
CCOC(=O)NC1=C(NCCCl)C(=O)C(NC(=O)OCC)=C(NCCCl)C1=O [Compound 12],activity was abolished,–,–,–,–,–,–,–,–,–,–,–,–
CCOC(=O)NC1=C(N2CC2(C)C)C(=O)C(NC(=O)OCC)=C(N2CC2(C)C)C1=O [Compound 11],abolished activity,–,–,–,–,–,–,–,–,–,–,–,–
CC(=O)NC1=C(N2CC2(C)C)C(=O)C(NC(C)=O)=C(N2CC2(C)C)C1=O [Compound 21],abolished activity,–,–,–,–,–,–,–,–,–,–,–,–
"O=C1C(F)=C(N2CC2)C(=O)C(N2CCOCC2)=C1N1CC1 [Compound 31, 2,5-diaziridinyl-3-fluoro-5-morpholino-1,4-benzoquinone]",–,0.7 mg/kg/injection,18% and 9%,0.8 mg/kg/injection and 1.5 mg/kg/injection,–,–,–,57% and 54%,2000 µg/mL,–,3.0 mg/kg/injection and 6.0 mg/kg/injection,49% and 40%,antitumor activity ([2]; IP P388): active
CCCSC1=C(N2CC2)C(=O)C(SCCC)=C(N2CC2)C1=O [Compound 6],inactive,–,–,–,–,–,–,–,–,–,–,–,–
CCCNC1=C(N2CC2)C(=O)C(NCCC)=C(N2CC2)C1=O [Compound 36],–,5.0 mg/kg/injection,36% and 32%,10.0 mg/kg/injection and 5.0 mg/kg/injection,6.2 mg/kg/injection,28% and 25%,6.2 mg/kg/injection,151% and 108%,< 100 µg/mL,48% and 43%,6.0 mg/kg/injection,259% and 143%,"antitumor activity (ependymoblastoma): highly active; also recorded: still very active; also recorded: most active; animals alive per 6 test animals on day of termination (ependymoblastoma): 2 and 1; survivors (number in parentheses) EM (ependymoblastoma; Table XI): 2; antitumor activity (lymphoid leukemia L1210 [1]; [11]): significant reduction in activity; animals alive per 6 test animals on day of termination ([2]; Table IX, IP P388, QD1-9, at OD, day 30): 2; survivors (number in parentheses) P388 ([2]; Table XI, per 6 test animals, day 30): 2"

# From patent publication US4146622A, “Aziridinyl quinone anti-transplanted tumor agents” (priority 1977, dated 1979)
